Test results published in patent publication US20020173538A1, “Method for sensitizing cancer cells to cancer therapies with a mevalonate-reducing compound” (priority 2000, published 2002).
Like-named read-outs stand apart in the source and are kept apart here.

Columns and labels:
[1] = test system: cholesterol biosynthesis in Hep G2 cells; assay: Cholesterol biosynthesis, incorporation of [2, ^3H]acetate into [^3H]cholesterol, Hep G2; type: cell-based, human; conditions: for inhibition at 10 µM / inhibition at 1 µM / inhibition at 5 µM / inhibition at 50 µM: Homo sapiens, read-out: percentage of inhibition of cholesterol biosynthesis
[2] = test system: cholesterol biosynthesis in Hep 3B cells; assay: Cholesterol biosynthesis, incorporation of [2, ^3H]acetate into [^3H]cholesterol, Hep 3B; type: cell-based, human; conditions: for inhibition at 10 µM / inhibition at 1 µM / inhibition at 5 µM / inhibition at 50 µM: Homo sapiens, Hep3B, read-out: percentage of inhibition of cholesterol biosynthesis
Hep 3B cells = assay: Sub-G1 population and DNA fragmentation (apoptosis), Hep 3B; type: cell-based, human; conditions: compared with Hep G2 cells treated in the same condition (FIG. 12)
[3] = MTT cell viability assay, mouse hepatocytes (serum-free RPMI-1640); type: cell-based; conditions: BALB/c, isolated mouse hepatocytes

Q: Which inhibition at 10 µM ([1]; HepG2, 2 h) does the source give for `CC[C@H](C)C(=O)O[C@H]1C[C@@H](C)C=C2C=C[C@H](C)[C@H](CC[C@@H]3C[C@@H](O)CC(=O)O3)[C@H]21` [Lovastatin, lovastatin] here?
A: Its inhibition at 10 µM is 91.8%.

Q: What about the inhibition at 10 µM ([1]; HepG2, 6 h) of the same molecule?
A: The inhibition at 10 µM was 94%.

Q: What about the inhibition at 10 µM ([1]; HepG2, 12 h) of the same molecule?
A: Its inhibition at 10 µM is 93.3%.

Q: What about the inhibition at 1 µM ([1]; HepG2, 24 h) of the same molecule?
A: The inhibition at 1 µM was 50.7%.

Q: And the inhibition at 5 µM ([1]; HepG2, 24 h)?
A: Its inhibition at 5 µM is 73.2%.

Q: What about the inhibition at 10 µM ([1]; HepG2, 24 h) of the same molecule?
A: The inhibition at 10 µM was 87.2%.

Q: And the inhibition at 50 µM ([1]; HepG2, 24 h)?
A: Its inhibition at 50 µM is 95.8%.

Q: What about the inhibition at 1 µM ([1]; HepG2, 48 h) of the same molecule?
A: Its inhibition at 1 µM is -15.3%.

Q: What about the inhibition at 5 µM ([1]; HepG2, 48 h) of the same molecule?
A: Its inhibition at 5 µM is 48.5%.

Q: What about the inhibition at 10 µM ([1]; HepG2, 48 h) of the same molecule?
A: The inhibition at 10 µM was 69.4%.

Q: What about the inhibition at 50 µM ([1]; HepG2, 48 h) of the same molecule?
A: The inhibition at 50 µM was 85.1%.

Q: What about the “[^3H]cholesterol” value ([1]; lovastatin 1 μM, 24 hr) of the same molecule?
A: Its value is 30.14 10^2 dpm/10^5 cells/hr.

Q: What about the “[^3H]cholesterol” value ([1]; lovastatin 1 μM, 48 hr) of the same molecule?
A: Its value is 70.43 10^2 dpm/10^5 cells/hr.

Q: What about the “[^3H]cholesterol” value ([1]; lovastatin 5 μM, 24 hr) of the same molecule?
A: The value was 16.39 10^2 dpm/10^5 cells/hr.

Q: And the “[^3H]cholesterol” value ([1]; lovastatin 5 μM, 48 hr)?
A: Its value is 31.46 10^2 dpm/10^5 cells/hr.

Q: And the “[^3H]cholesterol” value ([1]; lovastatin 10 μM, 2 hr)?
A: Its value is 5.00 10^2 dpm/10^5 cells/hr.

Q: And the “[^3H]cholesterol” value ([1]; lovastatin 10 μM, 6 hr)?
A: The value was 3.67 10^2 dpm/10^5 cells/hr.

Q: What about the “[^3H]cholesterol” value ([1]; lovastatin 10 μM, 12 hr) of the same molecule?
A: Its value is 4.07 10^2 dpm/10^5 cells/hr.

Q: And the “[^3H]cholesterol” value ([1]; lovastatin 10 μM, 24 hr)?
A: The value was 7.83 10^2 dpm/10^5 cells/hr.

Q: And the “[^3H]cholesterol” value ([1]; lovastatin 10 μM, 48 hr)?
A: The value was 18.71 10^2 dpm/10^5 cells/hr.

Q: What about the “[^3H]cholesterol” value ([1]; lovastatin 50 μM, 24 hr) of the same molecule?
A: Its value is 2.54 10^2 dpm/10^5 cells/hr.

Q: What about the “[^3H]cholesterol” value ([1]; lovastatin 50 μM, 48 hr) of the same molecule?
A: Its value is 9.13 10^2 dpm/10^5 cells/hr.

Q: What about the inhibition at 10 µM ([2]; 2 h) of the same molecule?
A: The inhibition at 10 µM was 94.1%.

Q: What about the inhibition at 10 µM ([2]; 6 h) of the same molecule?
A: The inhibition at 10 µM was 92.4%.

Q: And the inhibition at 10 µM ([2]; 12 h)?
A: Its inhibition at 10 µM is 89.5%.

Q: What about the inhibition at 1 µM ([2]; 24 h) of the same molecule?
A: Its inhibition at 1 µM is 50%.

Q: And the inhibition at 5 µM ([2]; 24 h)?
A: The inhibition at 5 µM was 85.4%.

Q: What about the inhibition at 10 µM ([2]; 24 h) of the same molecule?
A: Its inhibition at 10 µM is 91.4%.

Q: And the inhibition at 50 µM ([2]; 24 h)?
A: The inhibition at 50 µM was 95.1%.

Q: What about the inhibition at 1 µM ([2]; 48 h) of the same molecule?
A: The inhibition at 1 µM was 68.2%.

Q: What about the inhibition at 5 µM ([2]; 48 h) of the same molecule?
A: Its inhibition at 5 µM is 86.2%.

Q: And the inhibition at 10 µM ([2]; 48 h)?
A: The inhibition at 10 µM was 94%.

Q: What about the inhibition at 50 µM ([2]; 48 h) of the same molecule?
A: Its inhibition at 50 µM is 95.5%.

Q: What about the “suppression of cholesterol synthesis” value ([2]; after prolonged treatment with lovastatin) of the same molecule?
A: The value was > 90%.

Q: What about the “[^3H]cholesterol” value ([2]; lovastatin 1 μM, 24 hr) of the same molecule?
A: The value was 29.84 10^2 dpm/10^5 cells/hr.

Q: What about the “[^3H]cholesterol” value ([2]; lovastatin 1 μM, 48 hr) of the same molecule?
A: Its value is 18.95 10^2 dpm/10^5 cells/hr.

Q: What about the “[^3H]cholesterol” value ([2]; lovastatin 5 μM, 24 hr) of the same molecule?
A: Its value is 8.69 10^2 dpm/10^5 cells/hr.

Q: What about the “[^3H]cholesterol” value ([2]; lovastatin 5 μM, 48 hr) of the same molecule?
A: The value was 8.25 10^2 dpm/10^5 cells/hr.

Q: And the “[^3H]cholesterol” value ([2]; lovastatin 10 μM, 2 hr)?
A: The value was 3.54 10^2 dpm/10^5 cells/hr.

Q: And the “[^3H]cholesterol” value ([2]; lovastatin 10 μM, 6 hr)?
A: Its value is 4.52 10^2 dpm/10^5 cells/hr.

Q: What about the “[^3H]cholesterol” value ([2]; lovastatin 10 μM, 12 hr) of the same molecule?
A: The value was 6.25 10^2 dpm/10^5 cells/hr.

Q: And the “[^3H]cholesterol” value ([2]; lovastatin 10 μM, 24 hr)?
A: The value was 5.13 10^2 dpm/10^5 cells/hr.

Q: What about the “[^3H]cholesterol” value ([2]; lovastatin 10 μM, 48 hr) of the same molecule?
A: The value was 3.59 10^2 dpm/10^5 cells/hr.

Q: What about the “[^3H]cholesterol” value ([2]; lovastatin 50 μM, 24 hr) of the same molecule?
A: The value was 2.92 10^2 dpm/10^5 cells/hr.

Q: What about the “[^3H]cholesterol” value ([2]; lovastatin 50 μM, 48 hr) of the same molecule?
A: Its value is 2.71 10^2 dpm/10^5 cells/hr.

Q: What about the “Sub-G1 population and DNA fragmentation (markers of cell apoptosis)” value (Hep 3B cells) of the same molecule?
A: The value was “observed in a higher percentage and lower dose of lovastatin treatment than those in Hep G2 cells”.

Q: And the viability at 72 h, 1 μM [3]?
A: The viability at 72 h, 1 μM was 91.9 ± 2.7%.

Q: What about the viability at 72 h, 2 μM [3] of the same molecule?
A: Its viability at 72 h, 2 μM is 85 ± 4.5%.

Q: What about the viability at 72 h, 5 μM [3] of the same molecule?
A: Its viability at 72 h, 5 μM is 84.7 ± 13.3%.

Q: What about the viability at 72 h, 10 μM [3] of the same molecule?
A: Its viability at 72 h, 10 μM is 80.4 ± 9.9%.

Q: What about the viability at 72 h, 20 μM [3] of the same molecule?
A: Its viability at 72 h, 20 μM is 74.9 ± 5.1%.

Q: And the viability at 72 h, 50 μM [3]?
A: Its viability at 72 h, 50 μM is 39.1 ± 10.6%.
